In the supplement of paper PMC10307832:

Assays:
Assay in all cases: relative viability (nuclei count vs DMSO), 5 days (fraction); higher = more cells survive
Vorinostat + Bortezomib = compound: O=C(CCCCCCC(=O)Nc1ccccc1)NO [Vorinostat] + CC(C)C[C@H](NC(=O)[C@H](Cc1ccccc1)NC(=O)c1cnccn1)B(O)O [Bortezomib] (partner 0.002 µM)
How it was run: (§1)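 Lung cancer cell lines were pin-tool dosed in 1536-well plates on the day after seeding, with either a lone drug or a fixed anchor-drug dose plus five library-drug doses (not always all listed) in √10 steps. Nuclei were counted on 4× images after 5 days. Relative viability is the ratio of treated-well to vehicle-well nuclei counts, with each value a median of duplicate plates.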

Vorinostat + Luminespib = compound: O=C(CCCCCCC(=O)Nc1ccccc1)NO [Vorinostat] + CCNC(=O)c1noc(-c2cc(C(C)C)c(O)cc2O)c1-c1ccc(CN2CCOCC2)cc1 [Luminespib] (partner 0.01 µM)
How it was run: as §1

Vorinostat + Alpelisib = compound: O=C(CCCCCCC(=O)Nc1ccccc1)NO [Vorinostat] + Cc1nc(NC(=O)N2CCC[C@H]2C(N)=O)sc1-c1ccnc(C(C)(C)C(F)(F)F)c1 [Alpelisib] (partner 2 µM)
How it was run: as §1

Vorinostat + Phenformin = compound: O=C(CCCCCCC(=O)Nc1ccccc1)NO [Vorinostat] + N=C(N)NC(=N)NCCc1ccccc1 [Phenformin] (partner 250 µM)
How it was run: as §1

Vorinostat + Olaparib = compound: O=C(CCCCCCC(=O)Nc1ccccc1)NO [Vorinostat] + O=C(c1cc(Cc2n[nH]c(=O)c3ccccc23)ccc1F)N1CCN(C(=O)C2CC2)CC1 [Olaparib] (partner 8 µM)
How it was run: as §1

Cell Line | relative viability (Vorinostat + Bortezomib; first compound 0.253 µM) | relative viability (Vorinostat + Bortezomib; first compound 0.8 µM) | relative viability (Vorinostat + Bortezomib; first compound 2.53 µM) | relative viability (Vorinostat + Bortezomib; first compound 8 µM) | relative viability (Vorinostat + Luminespib; first compound 0.253 µM) | relative viability (Vorinostat + Luminespib; first compound 0.8 µM) | relative viability (Vorinostat + Luminespib; first compound 2.53 µM) | relative viability (Vorinostat + Luminespib; first compound 8 µM) | relative viability (Vorinostat + Alpelisib; first compound 0.253 µM) | relative viability (Vorinostat + Alpelisib; first compound 0.8 µM) | relative viability (Vorinostat + Alpelisib; first compound 2.53 µM) | relative viability (Vorinostat + Alpelisib; first compound 8 µM) | relative viability (Vorinostat + Phenformin; first compound 0.253 µM) | relative viability (Vorinostat + Phenformin; first compound 0.8 µM) | relative viability (Vorinostat + Phenformin; first compound 2.53 µM) | relative viability (Vorinostat + Phenformin; first compound 8 µM) | relative viability (Vorinostat + Olaparib; first compound 0.253 µM) | relative viability (Vorinostat + Olaparib; first compound 0.8 µM) | relative viability (Vorinostat + Olaparib; first compound 2.53 µM) | relative viability (Vorinostat + Olaparib; first compound 8 µM)
201T | 1.11 | 1.1 | 1.1 | 0.641 | 1.1 | 1.09 | 0.82 | 0.281 | 0.965 | 0.982 | 0.751 | 0.309 | 0.478 | 0.446 | 0.406 | 0.236 | 0.852 | 0.814 | 0.523 | 0.255
COR-L 105 | 1.3 | 0.617 | 0.292 | 0.267 | 0.968 | 0.892 | 0.646 | 0.219 | 1.37 | 0.783 | 0.249 | 0.184 | 0.609 | 0.54 | 0.199 | 0.234 | 0.727 | 0.821 | 0.589 | 0.266
EMC-BAC-2 | 1.22 | 1.02 | 0.405 | 0.167 | 1.13 | 1.13 | 0.484 | 0.182 | 0.88 | 0.745 | 0.409 | 0.113 | 0.523 | 0.473 | 0.248 | 0.163 | 0.448 | 0.382 | 0.216 | 0.139
NCI-H661 | 0.839 | 0.933 | 0.439 | 0.185 | 0.905 | 0.725 | 0.34 | 0.298 | 1.23 | 1.09 | 0.491 | 0.171 | 0.38 | 0.3 | 0.213 | 0.268 | 0.767 | 0.569 | 0.392 | 0.323
NCI-H322M | 1.4 | 1.25 | 0.715 | 0.392 | 1.25 | 1.11 | 0.731 | 0.28 | 0.93 | 0.852 | 0.576 | 0.296 | 0.94 | 0.761 | 0.452 | 0.284 | 0.9 | 0.873 | 0.498 | 0.386
HCC-15 | 1.15 | 0.973 | 0.518 | 0.13 | 0.526 | 0.565 | 0.361 | 0.148 | 0.93 | 0.864 | 0.468 | 0.0971 | 0.609 | 0.473 | 0.22 | 0.0895 | 0.672 | 0.631 | 0.35 | 0.106
BEN | 0.941 | 0.479 | 0.201 | 0.0496 | 0.454 | 0.176 | 0.223 | 0.0986 | 1.07 | 0.457 | 0.154 | 0.0775 | 0.297 | 0.215 | 0.146 | 0.0911 | 1.15 | 0.791 | 0.281 | 0.1
LCLC-103H | 1.16 | 0.893 | 0.391 | 0.238 | 0.987 | 0.939 | 0.185 | 0.145 | 1.23 | 0.97 | 0.58 | 0.184 | 0.322 | 0.332 | 0.267 | 0.151 | 0.844 | 0.737 | 0.413 | 0.247
NCI-H727 | 0.928 | 0.613 | 0.324 | 0.233 | 0.25 | 0.378 | 0.311 | 0.341 | 0.536 | 0.68 | 0.303 | 0.203 | 0.964 | 0.395 | 0.478 | 0.255 | 0.682 | 0.745 | 0.525 | 0.401
NCI-H650 | 0.523 | 0.42 | 0.19 | 0.144 | 0.773 | 0.808 | 0.201 | 0.155 | 1.43 | 0.933 | 0.191 | 0.146 | 0.483 | 0.375 | 0.256 | 0.14 | 0.375 | 0.275 | 0.121 | 0.129
NCI-H2009 | 1.32 | 0.567 | 0.233 | 0.126 | 1.04 | 0.935 | 0.752 | 0.144 | 1.24 | 1 | 0.633 | 0.187 | 0.545 | 0.496 | 0.319 | 0.144 | 0.729 | 0.582 | 0.395 | 0.0928
NCI-H838 | 1.22 | 0.864 | 0.275 | 0.134 | 0.287 | 0.207 | 0.199 | 0.118 | 1.23 | 1.1 | 0.605 | 0.185 | 0.95 | 0.562 | 0.317 | 0.139 | 0.87 | 0.785 | 0.222 | 0.153
NCI-H2085 | 0.942 | 0.841 | 0.566 | 0.265 | 0.447 | 0.411 | 0.317 | 0.19 | 0.982 | 0.947 | 0.514 | 0.255 | 0.781 | 0.532 | 0.46 | 0.223 | 0.803 | 0.79 | 0.442 | 0.219
NCI-H2228 | 0.979 | 0.389 | 0.188 | 0.097 | 0.138 | 0.172 | 0.168 | 0.113 | 0.945 | 0.461 | 0.184 | 0.113 | 0.388 | 0.27 | 0.136 | 0.102 | 0.501 | 0.499 | 0.223 | 0.124
PC-14 | 0.913 | 0.847 | 0.102 | 0.073 | 0.128 | 0.143 | 0.113 | 0.133 | 1 | 0.903 | 0.263 | 0.0674 | 0.713 | 0.561 | 0.131 | 0.0278 | 0.351 | 0.197 | 0.064 | 0.0386
A-427 | 0.991 | 1.04 | 0.723 | 0.21 | 1.03 | 0.892 | 0.339 | 0.158 | 1.1 | 1.1 | 0.889 | 0.146 | 0.389 | 0.396 | 0.229 | 0.139 | 0.71 | 0.789 | 0.468 | 0.21
